Data as given in PMC4147775, “Stimulation of Hepatic Apolipoprotein A-I Production by Novel Thieno-Triazolodiazepines: Roles of the Classical Benzodiazepine Receptor, PAF Receptor, and Bromodomain Binding” (Lipid insights, 2013).
Like-named read-outs stand apart in the source and are kept apart here.

Assays:
BRD2(1) = target: T1, BRD2(1) (Homo sapiens, UniProt P25440); assay: Protein stability shift assay (thermal shift), BRD2(1); format: binding; conditions: 10 μM ligand
T1 construct: the second as compared with the first bromodomain of these BRDs

BRD2(2) = target: T2, BRD2(2) (Homo sapiens, UniProt P25440); assay: Protein stability shift assay (thermal shift), BRD2(2); format: binding; conditions: 10 μM ligand
T2 construct: the second as compared with the first bromodomain of these BRDs

BRD3(1) = target: T3, BRD3(1) (Homo sapiens, UniProt Q15059); assay: Protein stability shift assay (thermal shift), BRD3(1); format: binding; conditions: 10 μM ligand
T3 construct: the second as compared with the first bromodomain of these BRDs

BRD4(2) = target: T4, BRD4(2) (Homo sapiens, UniProt O60885); assay: Protein stability shift assay (thermal shift), BRD4(2); format: binding; conditions: 10 μM ligand
T4 construct: the second as compared with the first bromodomain of these BRDs

BRDT(1) = target: T5, BRDT(1) (Homo sapiens, UniProt Q58F21); assay: Protein stability shift assay (thermal shift), BRDT(1); format: binding; conditions: 10 μM ligand
T5 construct: the second as compared with the first bromodomain of these BRDs

BRDT(2) = target: T6, BRDT(2) (Homo sapiens, UniProt Q58F21); assay: Protein stability shift assay (thermal shift), BRDT(2); format: binding; conditions: 10 μM ligand
T6 construct: the second as compared with the first bromodomain of these BRDs

BAZ2B = target: T7, BAZ2B (Homo sapiens, UniProt Q9UIF8); assay: Protein stability shift assay (thermal shift), BAZ2B; format: binding; conditions: 10 μM ligand
T7 construct: Thermal shift (Δtm^obs) of human bromodomains in the presence of 10 μM compound
T7 sequence (Q9UIF8 2060-2164 limits assumed): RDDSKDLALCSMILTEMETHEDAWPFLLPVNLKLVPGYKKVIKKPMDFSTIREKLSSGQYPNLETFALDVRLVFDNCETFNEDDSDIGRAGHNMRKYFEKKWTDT

CREBBP = target: T8, CREBBP (Homo sapiens, UniProt Q92793); assay: Protein stability shift assay (thermal shift), CREBBP; format: binding; conditions: 10 μM ligand
T8 construct: Thermal shift (Δtm^obs) of human bromodomains in the presence of 10 μM compound

PB1(5) = target: T9, PB1(5) (Homo sapiens, UniProt Q86U86); assay: Protein stability shift assay (thermal shift), PB1(5); format: binding; conditions: 10 μM ligand
T9 construct: Thermal shift (Δtm^obs) of human bromodomains in the presence of 10 μM compound

PCAF = target: T10, PCAF (Homo sapiens, UniProt Q92831); assay: Protein stability shift assay (thermal shift), PCAF; format: binding; conditions: 10 μM ligand
T10 construct: Thermal shift (Δtm^obs) of human bromodomains in the presence of 10 μM compound
T10 sequence (Q92831 723-827 limits assumed): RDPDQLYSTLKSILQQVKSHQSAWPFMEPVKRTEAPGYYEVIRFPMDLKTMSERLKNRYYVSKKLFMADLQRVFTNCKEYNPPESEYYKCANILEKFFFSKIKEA

[1] = system: apoA-I production by primary human hepatocytes; assay: apoA-I production by primary human hepatocytes (ELISA); format: cell-based; conditions: cultured human hepatocytes, highest concentration tested (100 μM)
[2] = system: apoA-I production by Hep-G2 cells; design: method as in PMID 20513599; conditions: HepG2 cells, 40 μM; cited from earlier work
[3] = some of the participants; cited from earlier work
[4] = system: fibrosarcoma cells (HT1080); assay: Cytotoxicity: mitochondrial membrane potential (TMRM)
BRD3(2) = BRD3(2) (Homo sapiens, UniProt Q15059); assay: Protein stability shift assay (thermal shift), BRD3(2); format: binding; design: the second as compared with the first bromodomain of these BRDs; conditions: 10 μM ligand
BRD4(1) = BRD4(1) (Homo sapiens, UniProt O60885); assay: Protein stability shift assay (thermal shift), BRD4(1); format: binding; design: the second as compared with the first bromodomain of these BRDs; conditions: 10 μM ligand

T9 sequence (Q86U86 653-763 limits assumed): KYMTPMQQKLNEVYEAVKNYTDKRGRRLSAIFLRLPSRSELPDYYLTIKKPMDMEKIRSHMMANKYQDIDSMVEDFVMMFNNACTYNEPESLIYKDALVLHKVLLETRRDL
BRD3(2), sequence (Q15059 306-415 limits assumed): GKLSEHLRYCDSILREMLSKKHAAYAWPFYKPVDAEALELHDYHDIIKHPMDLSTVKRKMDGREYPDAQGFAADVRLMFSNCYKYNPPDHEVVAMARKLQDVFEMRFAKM
T1 sequence (P25440 74-180 limits assumed): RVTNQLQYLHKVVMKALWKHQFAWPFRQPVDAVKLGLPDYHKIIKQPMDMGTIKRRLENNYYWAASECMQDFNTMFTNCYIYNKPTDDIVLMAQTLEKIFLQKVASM
T3 sequence (Q15059 34-140 limits assumed): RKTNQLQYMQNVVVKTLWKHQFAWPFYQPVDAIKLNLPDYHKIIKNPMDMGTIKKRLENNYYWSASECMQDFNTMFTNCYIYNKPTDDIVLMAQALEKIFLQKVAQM
T8 sequence (Q92793 1085-1192 limits assumed): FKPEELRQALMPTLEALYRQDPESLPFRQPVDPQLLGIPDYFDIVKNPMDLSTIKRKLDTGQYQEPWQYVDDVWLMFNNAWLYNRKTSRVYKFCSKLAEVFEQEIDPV
T2 sequence (P25440 344-453 limits assumed): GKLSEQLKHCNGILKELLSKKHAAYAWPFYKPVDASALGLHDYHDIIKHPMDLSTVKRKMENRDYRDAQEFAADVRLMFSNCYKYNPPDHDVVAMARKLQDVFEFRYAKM

COc1cc(OC)c2c(=O)[nH]c(-c3cc(C)c(OCCO)c(C)c3)nc2c1 [RVX-208, reference compound]
Thermal shift (ΔTm obs) BRD2(1) (BRD2(1)): 0.9 | Thermal shift (ΔTm obs) BRD2(2) (BRD2(2)): 4.0 | Thermal shift (ΔTm obs) BRD3(1) (BRD3(1)): 0.8 | Thermal shift (ΔTm obs) BRD4(2) (BRD4(2)): 3.4 | Thermal shift (ΔTm obs) BRDT(1) (BRDT(1)): 0.6 | Thermal shift (ΔTm obs) BRDT(2) (BRDT(2)): 4.0 | Thermal shift (ΔTm obs) BAZ2B (BAZ2B): −0.2 | Thermal shift (ΔTm obs) CREBBP (CREBBP): −0.2 | Thermal shift (ΔTm obs) PB1(5) (PB1(5)): 0.0 | Thermal shift (ΔTm obs) PCAF (PCAF): −0.4 | increase of apoA-I production [1]: up to 80% | stimulation of apoA-I protein production [2]: 2 fold | liver safety in human study [3]: signs of liver damage | IC50 ([4]; Homo sapiens, HT-1080, 72 h, read-out: mitochondrial membrane potential in fibrosarcoma cells, IC50, 72 hours): 50 µM | IC50 ([4]; read-out: mitochondrial membrane potential in fibrosarcoma cells, IC50, 72 hours): 49 µM | Thermal shift (ΔTm obs) BRD3(2) (BRD3(2)): 4.0 | Thermal shift (ΔTm obs) BRD4(1) (BRD4(1)): 1.3
